Results reported in patent publication US10613104B2, “Assay to determine anticoagulants in blood or blood plasma” (ZAFENA AB, priority 2014, dated 2020).

Test system: prothrombin time (PT) of normal plasma NKP
Assay: Three wet-chemistry Owren PT methods (Simple Simon PT; 20, 10, 5 μL sample in 200 μL reagent) on normal plasma NKP with added anticoagulant
Format: biochemical
Procedure: Experimental work was performed with the commercially available ambient room temperature coagulation instrument, Simple Simon P T Zafena A B, Linköping, Sweden, with functions described in EP 1 636 595 B2. One instrument or reader was used for each PT-method. Alternatively, the same instrument could be used for all PT-methods.
The three instruments were used together standing next to one another on a laboratory bench in thermal equilibrium with the ambient room temperature of the laboratory.
The ambient room temperature in the laboratory where the work was done varied between 21° C. and 26° C.
The PT-reagent was the one delivered together with lot N223M of the Simple Simon PT product, a reagent of Owren-type that thus contains effective amounts of thromboplastin, fibrinogen and FV (the thromboplastin of rabbit brain origin and the fibrinogen and the FV of bovine blood plasma origin). Other Owren type reagents could also be used.
The reagent was in portions of 200 μL to which sample, citrated blood or citrated blood plasma, was added and mixed. The addition was by an end-to-end plastic capillary mounted at one end of a tubular body with a displacement mechanism in the other end, this to allow convenient mixing of sample and reagent. Such Mixxocaps with 10 μL capillaries are supplied with the Simple Simon PT product. To perform the experiments described, some Mixxocaps were fitted with 20 μL capillaries, or 5 μL capillaries instead of the 10 μL capillaries with which they were supplied by the manufacturer.
The ratios between the volume of blood or blood plasma to the volume of liquid reagent used in the experiments were 1:11, 1:21 and 1:41. Other ratios lying within the range of 1:5 and 1:100 or within the range of 1:2 and 1:200 could be used.
Anticoagulated normal plasma was the NKP product GHI-163 lot 10188, MediRox AB, Nyköping, Sweden.
It was further relevant that all three PT-methods were calibrated, according to the invention, to show INR 1.000 for unadulterated NKP, and INR 1.357 for the NKP 1:2. All primary INR values, the results that appeared on the instrument screens (one instrument or reader was used for each PT-method), were therefore transformed to the corrected/calibrated INRc by the formula A*INRexp(B) where a and b were selected to given NKP and NKP 1:2 their desired values, 1.000 and 1.357, respectively. The INR-value of the NKP 1:2 was calculated by the formula of Lindahl et al for the INR of corresponding to PT-activity of 50% (half of the 100% that equates to INR 1.000). Above the INR calibrated columns (INRc) there is an upper number and a lower number, these are the above mentioned A and B, respectively.
As deemed relevant the upper number is selected to make NKP 1:2 to show INRc 1.357.
Clinical levels of interest range from 50 to 1000 μg/L in blood plasma.
In the selected calibration INR 1.000 and INR 1.357 were assigned to NKP and NKP 1:2, respectively, which was the same relevant calibration as selected in Examples 1 and 3 above.

[1] = apixaban 50 μg/L in NKP plasma, from PT (s)
[2] = apixaban 50 μg/L in NKP plasma, from instrument INR
[3] = apixaban 100 μg/L in NKP plasma
[4] = apixaban 100 μg/L in NKP plasma, from PT (s)
[5] = apixaban 100 μg/L in NKP plasma, from instrument INR
[6] = apixaban 200 μg/L in NKP plasma
[7] = apixaban 200 μg/L in NKP plasma, from PT (s)
[8] = apixaban 200 μg/L in NKP plasma, from instrument INR
[9] = apixaban 300 μg/L in NKP plasma
[10] = apixaban 300 μg/L in NKP plasma, from PT (s)
[11] = apixaban 300 μg/L in NKP plasma, from instrument INR
[12] = apixaban 400 μg/L in NKP plasma
[13] = apixaban 400 μg/L in NKP plasma, from PT (s)
[14] = apixaban 400 μg/L in NKP plasma, from instrument INR
[15] = apixaban 500 μg/L in NKP plasma
[16] = apixaban 500 μg/L in NKP plasma, from PT (s)
[17] = apixaban 500 μg/L in NKP plasma, from instrument INR
[18] = apixaban 600 μg/L in NKP plasma
[19] = apixaban 600 μg/L in NKP plasma, from PT (s)
[20] = apixaban 600 μg/L in NKP plasma, from instrument INR
[21] = apixaban 800 μg/L in NKP plasma
[22] = apixaban 800 μg/L in NKP plasma, from PT (s)
[23] = apixaban 800 μg/L in NKP plasma, from instrument INR
[24] = apixaban 1000 μg/L in NKP plasma
[25] = apixaban 1000 μg/L in NKP plasma, from PT (s)
[26] = apixaban 1000 μg/L in NKP plasma, from instrument INR

COc1ccc(-n2nc(C(N)=O)c3c2C(=O)N(c2ccc(N4CCCCC4=O)cc2)CC3)cc1 [apixaban]
INR 5 μL sample (apixaban 50 μg/L in NKP plasma): 1.12
INR 10 μL sample (apixaban 50 μg/L in NKP plasma): 1.18
INR 20 μL sample (apixaban 50 μg/L in NKP plasma): 1.28
PT (s) 5 μL sample (apixaban 50 μg/L in NKP plasma): 47.7 s
PT (s) 10 μL sample (apixaban 50 μg/L in NKP plasma): 39.1 s
PT (s) 20 μL sample (apixaban 50 μg/L in NKP plasma): 35.5 s
INRc 20 μL sample [1]: 1.23
ΔINRc 10 μL − 5 μL [1]: 0.04
ΔINRc 20 μL − 5 μL [1]: 0.19
INRc 20 μL sample [2]: 1.30
ΔINR 10 μL − 5 μL [2]: 0.07
ΔINR 20 μL − 5 μL [2]: 0.24
INR 5 μL sample [3]: 1.15
INR 10 μL sample [3]: 1.27
INR 20 μL sample [3]: 1.55
PT (s) 5 μL sample [3]: 49.1 s
PT (s) 10 μL sample [3]: 41.5 s
PT (s) 20 μL sample [3]: 39.3 s
INRc 20 μL sample [4]: 1.61
ΔINRc 10 μL − 5 μL [4]: 0.12
ΔINRc 20 μL − 5 μL [4]: 0.53
INRc 10 μL sample [5]: 1.24
INRc 20 μL sample [5]: 1.67
ΔINR 10 μL − 5 μL [5]: 0.15
ΔINR 20 μL − 5 μL [5]: 0.58
INR 5 μL sample [6]: 1.29
INR 10 μL sample [6]: 1.53
INR 20 μL sample [6]: 2.12
PT (s) 5 μL sample [6]: 54.4 s
PT (s) 10 μL sample [6]: 47.9 s
PT (s) 20 μL sample [6]: 46.7 s
INRc 5 μL sample [7]: 1.20
INRc 20 μL sample [7]: 2.53
ΔINRc 10 μL − 5 μL [7]: 0.31
INRc 5 μL sample [8]: 1.22
INRc 10 μL sample [8]: 1.55
INRc 20 μL sample [8]: 2.51
ΔINR 10 μL − 5 μL [8]: 0.34
ΔINR 20 μL − 5 μL [8]: 1.30
INR 5 μL sample [9]: 1.44
INR 10 μL sample [9]: 1.82
INR 20 μL sample [9]: 2.82
PT (s) 5 μL sample [9]: 60.6 s
PT (s) 10 μL sample [9]: 54.6 s
PT (s) 20 μL sample [9]: 54.8 s
INRc 5 μL sample [10]: 1.35
INRc 10 μL sample [10]: 1.88
INRc 20 μL sample [10]: 3.85
ΔINRc 10 μL − 5 μL [10]: 0.53
ΔINRc 20 μL − 5 μL [10]: 2.50
INRc 5 μL sample [11]: 1.35
INRc 10 μL sample [11]: 1.91
INRc 20 μL sample [11]: 3.66
ΔINR 10 μL − 5 μL [11]: 0.56
ΔINR 20 μL − 5 μL [11]: 2.30
INR 5 μL sample [12]: 1.58
INR 20 μL sample [12]: 3.68
PT (s) 5 μL sample [12]: 66.3 s
PT (s) 10 μL sample [12]: 62.3 s
PT (s) 20 μL sample [12]: 63.5 s
INRc 5 μL sample [13]: 1.48
INRc 20 μL sample [13]: 5.66
ΔINRc 10 μL − 5 μL [13]: 0.86
ΔINRc 20 μL − 5 μL [13]: 4.18
INRc 5 μL sample [14]: 1.48
INRc 20 μL sample [14]: 5.18
ΔINR 10 μL − 5 μL [14]: 0.87
ΔINR 20 μL − 5 μL [14]: 3.70
INR 5 μL sample [15]: 1.73
INR 10 μL sample [15]: 2.37
INR 20 μL sample [15]: 4.47
PT (s) 5 μL sample [15]: 72.0 s
PT (s) 10 μL sample [15]: 67.0 s
PT (s) 20 μL sample [15]: 70.8 s
INRc 5 μL sample [16]: 1.62
INRc 10 μL sample [16]: 2.64
INRc 20 μL sample [16]: 7.54
ΔINRc 10 μL − 5 μL [16]: 1.02
ΔINRc 20 μL − 5 μL [16]: 5.92
INRc 5 μL sample [17]: 1.62
INRc 10 μL sample [17]: 2.63
INRc 20 μL sample [17]: 6.69
ΔINR 10 μL − 5 μL [17]: 1.02
ΔINR 20 μL − 5 μL [17]: 5.07
INR 5 μL sample [18]: 1.90
INR 10 μL sample [18]: 2.70
INR 20 μL sample [18]: 5.56
PT (s) 5 μL sample [18]: 78.8 s
PT (s) 10 μL sample [18]: 73.9 s
PT (s) 20 μL sample [18]: 79.9 s
INRc 5 μL sample [19]: 1.78
INRc 10 μL sample [19]: 3.10
INRc 20 μL sample [19]: 10.35
ΔINRc 10 μL − 5 μL [19]: 1.32
ΔINRc 20 μL − 5 μL [19]: 8.57
INRc 5 μL sample [20]: 1.77
INRc 10 μL sample [20]: 3.08
INRc 20 μL sample [20]: 8.91
ΔINR 10 μL − 5 μL [20]: 1.31
ΔINR 20 μL − 5 μL [20]: 7.14
INR 5 μL sample [21]: 2.22
INR 10 μL sample [21]: 3.35
INR 20 μL sample [21]: 7.81
PT (s) 5 μL sample [21]: 91.7 s
PT (s) 10 μL sample [21]: 87.2 s
PT (s) 20 μL sample [21]: 96.9 s
INRc 5 μL sample [22]: 2.09
INRc 20 μL sample [22]: 17.18
ΔINRc 10 μL − 5 μL [22]: 1.99
INRc 5 μL sample [23]: 2.06
INRc 20 μL sample [23]: 13.91
ΔINR 10 μL − 5 μL [23]: 1.94
ΔINR 20 μL − 5 μL [23]: 11.85
INR 5 μL sample [24]: 2.67
INR 20 μL sample [24]: 10.70
PT (s) 5 μL sample [24]: 111.2 s
PT (s) 10 μL sample [24]: 109.3 s
PT (s) 20 μL sample [24]: 117.4 s
INRc 20 μL sample [25]: 28.43
INRo [25]: 0.75
ΔINRc 10 μL − 5 μL [25]: 3.37
ΔINRc 20 μL − 5 μL [25]: 25.85
INRc 20 μL sample [26]: 21.03
INRo [26]: 0.78
ΔINR 10 μL − 5 μL [26]: 3.12
ΔINR 20 μL − 5 μL [26]: 18.56
content at which the INRc-difference (20 μL minus 5 μL) reaches 0.5 (normal plasma NKP, linear part of the graph (FIG. 8, FIG. 2)): about 80 μg/L
